The nature of data set [1]: Assay for determination of apparent permeability (Papp), bi-directional transport. To be noted: pig, LLC-PK1; 1 μM test compound, t=3 h, average of A to B and B to A; read-out: Papp LLC-PK1 cells. It counts as in vitro ADME. Here is the method: Assay for Determination of Apparent Permeability (Papp)
Bi-directional transport was evaluated in LLC-PK1 cells in order to determine apparent permeability (Papp). LLC-PK1 cells can form a tight monolayer and therefore can be used to assess vectorial transport of compounds from basolateral to apical (B→A) and from apical to basolateral (A→B).
To determine Papp, LLC-PK1 cells were cultured in 96-well transwell culture plates (Millipore). Solutions containing the test compounds (1 μM) were prepared in Hank's Balanced Salt Solution with 10 mM HEPES. Substrate solution (150 μL) was added to either the apical (A) or the basolateral (B) compartment of the culture plate, and buffer (150 μL) was added to the compartment opposite to that containing the compound. At t=3 h, 50 μL samples were removed from both sides of monolayers dosed with test compound and placed in 96 well plates, scintillant (200 μL) or internal standard (100 μL labetolol 1 μM) was added to the samples and concentration was determined by liquid scintillation counting in a MicroBeta Wallac Trilux scintillation counter (Perkin Elmer Life Sciences, Boston, Mass.) or by LCMS/MS (Applied Biosystems SCIEX API 5000 triple quadruple mass spectrometer). [^3H]Verapamil (1 μM) was used as the positive control. The experiment was performed in triplicate.
[formula] Where: Volume of Receptor Chamber was 0.15 mL; Area of membrane was 0.11 cm^2; the Initial Concentration is the sum of the concentration measured in the donor plus concentration measured in receiver compartments at t=3 h; A in Concentration is concentration in the receiver compartment at 3 h; and Δ in Time is the incubation time (3×60×60=10800 s). Papp was expressed as 10^−6 cm/s.

A further data set addresses human O-GlcNAcase (Homo sapiens (Human), UniProt O60502). The data set is described as follows: Assay for determination of KI values for inhibition of O-GlcNAcase activity (fluorescence-based hOGA). It counts as biochemical. To be noted: purified human O-GlcNAcase, 4-Methylumbelliferyl N-acetyl-β-D-glucosaminide substrate, pH 7.0, Cheng-Prusoff. Here is the method:
Assay for Determination of KI Values for Inhibition of O-GlcNAcase Activity
Experimental Procedure for Kinetic Analyses:
Enzymatic reactions were carried out in a reaction containing 50 mM NaH2PO4, 100 mM NaCl and 0.1% BSA (pH 7.0) using 2 mM 4-Methylumbelliferyl N-acetyl-β-D-glucosaminide dihydrate (Sigma M2133) dissolved in ddH2O, as a substrate. The amount of purified human O-GlcNAcase enzyme used in the reaction was 0.7 nM. Test compound of varying concentrations was added to the enzyme prior to initiation of the reaction. The reaction was performed at room temperature in a 96-well plate and was initiated with the addition of substrate. […] The slope of product production was determined for each concentration of compound tested and plotted, using standard curve fitting algorithms for sigmoidal dose response curves. The values for a four parameter logistic curve fit of the data were determined.

A further data set concerns the target O-GlcNAcase (Rattus norvegicus (Rat), UniProt Q8VIJ5). The data set is described as follows: Cell-based ELISA of O-GlcNAcylated protein (RL-2 antibody) for cellular activity of O-GlcNAcase inhibitors. To be noted: rat PC-12 cells, 24 h treatment, O-GlcNAcylated protein detected with RL-2 antibody. An excerpt:
Assay for Determination of Cellular Activity for Compounds that Inhibit O-GlcNAcase Activity
Inhibition of O-GlcNAcase, which removes O-GlcNAc from cellular proteins, results in an increase in the level of O-GlcNAcylated protein in cells. An increase in O-GlcNAcylated protein can be measured by an antibody, such as RL-2, that binds to O-GlcNAcylated protein. The amount of O-GlcNAcylated protein:RL2 antibody interaction can be measured by enzyme linked immunosorbant assay (ELISA) procedures.
A variety of tissue culture cell lines, expressing endogenous levels of O-GlcNAcase, can be utilized; examples include rat PC-12, and human U-87, or SK—N—SH cells. […] Compounds to be tested were dissolved in DMSO, either 2 or 10 mM stock solution, and then diluted with DMSO and water in a two-step process using a Tecan workstation. […] To prepare a cell lysate, the media from compound treated cells was removed, the cells were washed once with phosphate buffered saline (PBS) and then lysed for 5 minutes at room temperature in 50 μL of Phosphosafe reagent (Novagen Inc, Madison, Wis.) with protease inhibitors and PMSF. The cell lysate was collected and transferred to a new plate, which was then either coated to assay plates directly or frozen −80° C. until used in the ELISA procedure. If desired, the total protein concentration of samples was determined using 20 μL of the sample using the BCA method.
The ELISA portion of the assay was performed in a black Maxisorp 96-well plate that was coated overnight at 4° C. with 100 μL/well of the cell lysate (1:10 dilution of the lysate with PBS containing protease inhibitors, phosphatase inhibitors, and PMSF). […]
The amount of O-GlcNAcylated protein, as detected by the ELISA assay, was plotted for each concentration of test compound using standard curve fitting algorithms for sigmoidal dose response curves. The values for a four parameter logistic curve fit of the data were determined, with the inflection point of the curve being the potency value for the test compound.
Background: In an ELISA, binding on a coated surface is turned into a signal by an enzyme label.

human O-GlcNAcase, sequence (O60502 whole entry): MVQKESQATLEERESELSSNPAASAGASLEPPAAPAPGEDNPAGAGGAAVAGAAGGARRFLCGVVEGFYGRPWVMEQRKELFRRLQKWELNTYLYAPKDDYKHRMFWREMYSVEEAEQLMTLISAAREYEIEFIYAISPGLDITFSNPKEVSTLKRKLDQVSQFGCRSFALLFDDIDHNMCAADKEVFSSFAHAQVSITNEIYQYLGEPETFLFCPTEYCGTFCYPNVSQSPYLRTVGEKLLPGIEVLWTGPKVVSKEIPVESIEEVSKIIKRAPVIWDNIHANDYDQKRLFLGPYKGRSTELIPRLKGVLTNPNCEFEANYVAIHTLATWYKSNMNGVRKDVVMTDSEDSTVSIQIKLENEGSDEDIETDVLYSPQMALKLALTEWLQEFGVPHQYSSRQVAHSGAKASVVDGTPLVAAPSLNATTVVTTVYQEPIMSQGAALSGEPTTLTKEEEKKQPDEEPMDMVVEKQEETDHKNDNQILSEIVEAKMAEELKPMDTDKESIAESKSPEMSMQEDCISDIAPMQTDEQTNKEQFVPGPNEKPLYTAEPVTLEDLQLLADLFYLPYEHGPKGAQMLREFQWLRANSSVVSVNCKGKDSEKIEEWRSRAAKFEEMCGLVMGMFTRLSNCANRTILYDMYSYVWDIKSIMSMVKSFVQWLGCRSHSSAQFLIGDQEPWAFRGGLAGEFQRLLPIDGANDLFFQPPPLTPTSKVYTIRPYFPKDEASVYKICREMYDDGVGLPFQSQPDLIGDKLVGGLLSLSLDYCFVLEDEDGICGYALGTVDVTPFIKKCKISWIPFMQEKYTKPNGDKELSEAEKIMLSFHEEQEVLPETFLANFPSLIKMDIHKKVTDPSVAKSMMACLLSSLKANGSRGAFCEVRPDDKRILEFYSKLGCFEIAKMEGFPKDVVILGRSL
O-GlcNAcase, sequence (Q8VIJ5 whole entry): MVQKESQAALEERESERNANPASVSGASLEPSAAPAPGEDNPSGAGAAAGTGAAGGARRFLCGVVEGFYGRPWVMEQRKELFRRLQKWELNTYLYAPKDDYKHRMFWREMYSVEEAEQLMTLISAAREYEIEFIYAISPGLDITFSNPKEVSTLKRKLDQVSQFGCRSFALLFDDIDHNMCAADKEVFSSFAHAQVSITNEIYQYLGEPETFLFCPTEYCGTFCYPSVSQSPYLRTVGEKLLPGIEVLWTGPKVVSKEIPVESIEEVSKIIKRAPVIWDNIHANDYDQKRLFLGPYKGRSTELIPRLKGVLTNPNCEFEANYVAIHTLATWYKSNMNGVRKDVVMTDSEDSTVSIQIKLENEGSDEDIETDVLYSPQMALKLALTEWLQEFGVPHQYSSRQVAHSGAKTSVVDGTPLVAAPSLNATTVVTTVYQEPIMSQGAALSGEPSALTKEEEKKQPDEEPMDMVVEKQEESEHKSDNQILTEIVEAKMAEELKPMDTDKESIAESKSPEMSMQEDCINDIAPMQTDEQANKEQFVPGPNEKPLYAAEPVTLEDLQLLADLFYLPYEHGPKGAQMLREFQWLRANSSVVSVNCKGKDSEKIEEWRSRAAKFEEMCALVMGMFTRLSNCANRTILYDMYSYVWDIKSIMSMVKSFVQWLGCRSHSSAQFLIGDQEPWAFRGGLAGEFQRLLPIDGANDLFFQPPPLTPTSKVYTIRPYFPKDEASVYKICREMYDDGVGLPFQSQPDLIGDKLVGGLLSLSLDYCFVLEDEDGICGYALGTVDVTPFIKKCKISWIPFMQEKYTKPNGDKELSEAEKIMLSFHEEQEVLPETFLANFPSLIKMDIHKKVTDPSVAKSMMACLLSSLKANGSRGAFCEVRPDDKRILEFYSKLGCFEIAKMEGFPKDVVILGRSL

`CC[C@H]1O[C@@H]2SC(NC)=N[C@@H]2[C@@H](F)[C@@H]1O` [Example 15, (3aR,5R,6R,7R,7aR)-5-ethyl-7-fluoro-2-(methylamino)-5,6,7,7a-tetrahydro-3aH-pyrano[3,2-d]thiazol-6-ol]: the Papp at 3 h, 1 μM in data set [1] came to 34 ×10⁻⁶ cm/s. Besides, at human O-GlcNAcase, the affinity corresponds to a Ki of 156 nM.

As to `O[C@H]1[C@H](F)[C@H]2N=C(N3CCC3)S[C@H]2O[C@@H]1[C@@H](O)C(F)(F)F` [Example 32, (3aR,5S,6R,7R,7aR)-2-(azetidin-1-yl)-7-fluoro-5-((R)-2,2,2-trifluoro-1-hydroxyethyl)-5,6,7,7a-tetrahydro-3aH-pyrano[3,2-d]thiazol-6-ol], in data set [1], the Papp at 3 h, 1 μM was 21 ×10⁻⁶ cm/s. This compound also yielded a Ki on human O-GlcNAcase of 13 nM.

Consider `CNC1=N[C@@H]2[C@H](F)[C@H](O)[C@@H]([C@H](C)O)O[C@@H]2S1` [Example 34, (3aR,5R,6R,7S,7aR)-7-fluoro-5-((S)-1-hydroxyethyl)-2-(methylamino)-5,6,7,7a-tetrahydro-3aH-pyrano[3,2-d]thiazol-6-ol], for which, in data set [1], the Papp at 3 h, 1 μM came out at 1.9 ×10⁻⁶ cm/s.

`CC[C@H]1O[C@@H]2SC(NC)=N[C@@H]2[C@H](F)[C@@H]1O` [Example 42, (3aR,5R,6R,7S,7aR)-5-ethyl-7-fluoro-2-(methylamino)-5,6,7,7a-tetrahydro-3aH-pyrano[3,2-d]thiazol-6-ol] showed a Ki on human O-GlcNAcase of 50 nM.

As for `C[C@H](O)[C@H]1O[C@@H]2SC(N(C)C)=N[C@@H]2[C@@H](F)[C@@H]1O` [Example 5, (3aR,5R,6R,7R,7aR)-2-(dimethylamino)-7-fluoro-5-((S)-1-hydroxyethyl)-5,6,7,7a-tetrahydro-3aH-pyrano[3,2-d]thiazol-6-ol], in data set [1], the Papp at 3 h, 1 μM was 14 ×10⁻⁶ cm/s. The compound further registered a Ki on human O-GlcNAcase of 16 nM.

The compound `CNC1=N[C@@H]2C[C@H](O)[C@@H]([C@@](C)(O)C(F)(F)F)O[C@@H]2S1` [Example 29, (3aR,5S,6S,7aR)-2-(methylamino)-5-((R)-1,1,1-trifluoro-2-hydroxypropan-2-yl)-5,6,7,7a-tetrahydro-3aH-pyrano[3,2-d]thiazol-6-ol] had a Ki at human O-GlcNAcase of 492 nM.

For the compound `CCNC1=N[C@@H]2C[C@H](O)[C@@H]([C@H](C)O)O[C@@H]2S1` [Example 13, (3aR,5R,6S,7aR)-2-(ethylamino)-5-((S)-1-hydroxyethyl)-5,6,7,7a-tetrahydro-3aH-pyrano[3,2-d]thiazol-6-ol], in data set [1], the Papp at 3 h, 1 μM amounted to 2.3 ×10⁻⁶ cm/s. The compound further came in with a Ki at human O-GlcNAcase of 26 nM.

For `CNC1=N[C@@H]2[C@H](F)[C@H](O)[C@@H]([C@@H](O)C(F)(F)F)O[C@@H]2S1` [Example 38, (3aR,5S,6R,7S,7aR)-7-fluoro-2-(methylamino)-5-((R)-2,2,2-trifluoro-1-hydroxyethyl)-5,6,7,7a-tetrahydro-3aH-pyrano[3,2-d]thiazol-6-ol], in data set [1], the Papp at 3 h, 1 μM is 3.7 ×10⁻⁶ cm/s. Also, the response at O-GlcNAcase was half-maximal at 9.1 nM (EC50). On human O-GlcNAcase, this compound came in with a Ki of 0.7 nM.

In the case of `CNC1=N[C@@H]2C[C@H](O)[C@@H]([C@@H](O)C(F)(F)F)O[C@@H]2S1` [Example 20, (3aR,5S,6S,7aR)-2-(methylamino)-5-((R)-2,2,2-trifluoro-1-hydroxyethyl)-5,6,7,7a-tetrahydro-3aH-pyrano[3,2-d]thiazol-6-ol], the Papp at 3 h, 1 μM in data set [1] turned out to be 3.4 ×10⁻⁶ cm/s. Moreover, at O-GlcNAcase, the EC50 was 50 nM. At human O-GlcNAcase, this compound registered a Ki of 3.5 nM.

Consider `CN(C)C1=N[C@@H]2[C@@H](F)[C@H](O)[C@@H]([C@@H](O)C(F)(F)F)O[C@@H]2S1` [Example 11, (3aR,5S,6R,7R,7aR)-2-(dimethylamino)-7-fluoro-5-((R)-2,2,2-trifluoro-1-hydroxyethyl)-5,6,7,7a-tetrahydro-3aH-pyrano[3,2-d]thiazol-6-ol], for which the Papp at 3 h, 1 μM in data set [1] worked out at 23 ×10⁻⁶ cm/s. The inhibition constant Ki on human O-GlcNAcase was 9.5 nM.

With `CNC1=N[C@@H]2[C@H](F)[C@H](O)[C@@H](C(C)(C)O)O[C@@H]2S1` [Example 43, (3aR,5S,6R,7S,7aR)-7-fluoro-5-(2-hydroxypropan-2-yl)-2-(methylamino)-5,6,7,7a-tetrahydro-3aH-pyrano[3,2-d]thiazol-6-ol], the Papp at 3 h, 1 μM in data set [1] was 2.4 ×10⁻⁶ cm/s. At human O-GlcNAcase, this compound came in with a Ki of 390 nM.

As to `CNC1=N[C@@H]2[C@@H](F)[C@H](O)[C@@H]([C@H](C)O)O[C@@H]2S1` [Example 1, (3aR,5R,6R,7R,7aR)-7-fluoro-5-((S)-1-hydroxyethyl)-2-(methylamino)-5,6,7,7a-tetrahydro-3aH-pyrano[3,2-d]thiazol-6-ol], the Papp at 3 h, 1 μM in data set [1] came to 3.3 ×10⁻⁶ cm/s.

Turning to `CCNC1=N[C@@H]2[C@H](F)[C@H](O)[C@@H]([C@@H](C)O)O[C@@H]2S1` [Example 37, (3aR,5R,6R,7S,7aR)-2-(ethylamino)-7-fluoro-5-((R)-1-hydroxyethyl)-5,6,7,7a-tetrahydro-3aH-pyrano[3,2-d]thiazol-6-ol], in data set [1], the Papp at 3 h, 1 μM was determined as 2.1 ×10⁻⁶ cm/s. Moreover, at human O-GlcNAcase, the inhibition constant Ki was determined as 266 nM.

Regarding `CCNC1=N[C@@H]2[C@@H](F)[C@H](O)[C@@H]([C@H](C)O)O[C@@H]2S1` [Example 3, (3aR,5R,6R,7R,7aR)-2-(ethylamino)-7-fluoro-5-((S)-1-hydroxyethyl)-5,6,7,7a-tetrahydro-3aH-pyrano[3,2-d]thiazol-6-ol], the Papp at 3 h, 1 μM in data set [1] worked out at 5.2 ×10⁻⁶ cm/s. The compound also registered a Ki at human O-GlcNAcase of 12 nM.

`CCNC1=N[C@@H]2[C@@H](F)[C@H](O)[C@@H]([C@@H](O)C(F)(F)F)O[C@@H]2S1` [Example 7, (3aR,5S,6R,7R,7aR)-2-(ethylamino)-7-fluoro-5-((R)-2,2,2-trifluoro-1-hydroxyethyl)-5,6,7,7a-tetrahydro-3aH-pyrano[3,2-d]thiazol-6-ol]: in data set [1], the Papp at 3 h, 1 μM was 15 ×10⁻⁶ cm/s. This compound returned a Ki at human O-GlcNAcase of 16 nM.

As to `CNC1=N[C@@H]2[C@@H](F)[C@H](O)[C@@H]([C@@H](O)C(F)(F)F)O[C@@H]2S1` [Example 9, (3aR,5S,6R,7R,7aR)-7-fluoro-2-(methylamino)-5-((R)-2,2,2-trifluoro-1-hydroxyethyl)-5,6,7,7a-tetrahydro-3aH-pyrano[3,2-d]thiazol-6-ol], the Papp at 3 h, 1 μM in data set [1] stood at 6.6 ×10⁻⁶ cm/s. Further, a half-maximal response at O-GlcNAcase (EC50) required 74 nM. On human O-GlcNAcase, the Ki turned out to be 3.5 nM.

A word on the Papp: it is the rate of passage across a membrane or cell layer, normalised by area and donor concentration. By Ki is commonly meant the dissociation constant of the complex between target and ligand, obtained from inhibition or displacement. High values mean lower affinity, low ones higher affinity. By EC50 is commonly meant the midpoint of the concentration-response curve. A lower EC50 goes with an effect from little substance.

(Values after patent US9409924B2, “Selective glycosidase inhibitors and uses thereof” (Alectos Therapeutics Inc., priority 2011, dated 2016).)
